# In paper PMC11249646, “Small-Molecule Disruptors of the Interaction between Calcium- and Integrin-Binding Protein 1 and Integrin αIIbβ3 as Novel Antiplatelet Agents” (ACS Pharmacology & Translational Science, 2024):
# Biological target: T1, CIB1 and αIIb interaction (CIB1-GST : F-αIIb peptide) (Homo sapiens, UniProt Q99828)
# T1 construct: made in house; host or cells: BL-21 plus RIL cells (E. coli)
# T1 sequence (Q99828 1-191): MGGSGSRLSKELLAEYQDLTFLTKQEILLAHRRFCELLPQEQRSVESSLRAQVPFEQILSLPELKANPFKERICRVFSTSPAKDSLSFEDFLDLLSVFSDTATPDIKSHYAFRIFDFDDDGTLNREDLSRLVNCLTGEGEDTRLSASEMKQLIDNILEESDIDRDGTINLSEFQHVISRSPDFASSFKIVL
# Assay: FP assay, 1536-well qHTS format (primary and confirmatory screen)
# Assay type: binding
# Conditions: qHTS FP screen hits, Table S2; negative = inhibition
row,Efficacy (%),SMILES
1,-30%,CC[PH](CC)(CC)[Au][S][C@@H]1O[C@H](COC(C)=O)[C@@H](OC(C)=O)[C@H](OC(C)=O)[C@H]1OC(C)=O [NCGC00160391-05]
2,-39%,CCCCCCCCOc1ccccc1C(=O)Nc1ccc(C(=O)OCC[N+](C)(CC)CC)cc1.[Br-] [NCGC00163507-03]
3,-34%,COc1ccc2[nH]c([S+]([O-])Cc3ncc(C)c(OC)c3C)nc2n1 (centres unmarked) [NCGC00167521-02]

# Same assay, conditions: qHTS FP screen hits, Table S2; one class per curve where COUNT > 1; negative sign = inhibitory curve
row,Curve Class,SMILES
1,-1.2,CCCCCCCCOc1ccccc1C(=O)Nc1ccc(C(=O)OCC[N+](C)(CC)CC)cc1.[Br-] [NCGC00163507-03]

# Same assay, conditions: qHTS FP screen hits, Table S2; read-out: IC50
row,IC50,SMILES
1,17.1 µM,CC[PH](CC)(CC)[Au][S][C@@H]1O[C@H](COC(C)=O)[C@@H](OC(C)=O)[C@H](OC(C)=O)[C@H]1OC(C)=O [NCGC00160391-05]
2,22.4 µM,CCCCCCCCOc1ccccc1C(=O)Nc1ccc(C(=O)OCC[N+](C)(CC)CC)cc1.[Br-] [NCGC00163507-03]
3,47.4 µM,COc1ccc2[nH]c([S+]([O-])Cc3ncc(C)c(OC)c3C)nc2n1 (centres unmarked) [NCGC00167521-02]

# Same assay, conditions: qHTS primary screen hits, Table S2; negative = inhibition
row,SMILES,Efficacy (%)
1,COc1ccc(Nc2cc(C)nc(-n3nc(C)cc3C)n2)cc1Cl.O=C(O)C(F)(F)F [NCGC00134126-02],-30%
2,Oc1cc(Cl)ccc1Oc1ccc(Cl)cc1Cl [NCGC00159417-06],-22%
3,CC(C)=CCOc1ccc(/C=C/C(=O)c2ccc(OCC=C(C)C)cc2OCC(=O)O)cc1 [NCGC00159481-03],-94%
4,COCCCOc1ccnc(C[S+]([O-])c2nc3ccccc3[n-]2)c1C.[Na+] (centres unmarked) [NCGC00159518-05],-54%
5,CN1CCN(CCC(=O)N2c3ccccc3Sc3ccc(C(F)(F)F)cc32)CC1.Cl [NCGC00160483-02],-60%
6,COC1=C(OC)C(=O)C(CCCCCCCCCCO)=C(C)C1=O [NCGC00160514-02],-26%
7,O=C(Nc1ccc(Oc2ccc(Cl)cc2)c(Cl)c1)c1cc(I)cc(I)c1O [NCGC00160556-02],-27%
8,CSc1ccc(/C=C2/C(C)=C(CC(=O)O)c3cc(F)ccc32)cc1 [NCGC00161601-02],-32%
9,O=C(O)c1ccc(S(=O)(=O)N[C@@H](Cc2ccc(O)cc2)C(=O)O)cc1 [NCGC00161808-01],-21%
10,CS(=O)(=O)c1ccc(C(=O)C2C(=O)CCCC2=O)c([N+](=O)[O-])c1 [NCGC00163843-03],-30%
11,CCCCCCCCCCCC[N+](C)(C)Cc1ccccc1.[Cl-] [NCGC00164245-03],-38%
12,C[C@]12CC[C@@H]3c4ccc(OC(=O)N(CCCl)CCCl)cc4CC[C@H]3[C@@H]1CC[C@@H]2O [NCGC00164581-02],-41%

# The remaining lines, values ahead:
row,Efficacy (%),SMILES
1,-37%,Oc1ccc(Cl)c2cccnc12 [NCGC00095303-04]
2,-50%,Cc1c(Cl)cccc1-n1c(CCC(=O)O)ccc1-c1cccs1 [NCGC00100415-03]
3,-33%,Cc1cc(Cl)ccc1-n1c(CCC(=O)O)ccc1-c1cccs1 [NCGC00100435-03]
4,-18%,NC[C@H](O)c1ccc(O)c(O)c1 [NCGC00159406-07]
5,-44%,O=C(CS)Nc1ccccc1 [NCGC00160366-02]
6,-29%,Cc1ccc(S(=O)(=O)Nc2cc(S(=O)(=O)c3ccc(C)cc3)c(O)c3cccnc23)cc1 [NCGC00161699-01]
7,-37%,O=S(=O)(Nc1cc(O)cc2cccnc12)c1ccc(Cl)s1 [NCGC00161701-01]
8,-40%,COc1cc(NS(=O)(=O)c2ccc([N+](=O)[O-])cc2)c2ncccc2c1 [NCGC00161705-01]
9,-35%,COc1cc(NS(=O)(=O)c2cccc([N+](=O)[O-])c2)c2ncccc2c1 [NCGC00161706-01]
10,-50%,Cc1ccc(O)c2ncccc12 [NCGC00164506-02]

# Same assay, conditions: qHTS primary screen hits, Table S2; negative sign = inhibitory curve
row,SMILES,Curve Class
1,Oc1cc(Cl)ccc1Oc1ccc(Cl)cc1Cl [NCGC00159417-06],-2.4
2,CC(C)=CCOc1ccc(/C=C/C(=O)c2ccc(OCC=C(C)C)cc2OCC(=O)O)cc1 [NCGC00159481-03],-3
3,O=C(Nc1ccc(Oc2ccc(Cl)cc2)c(Cl)c1)c1cc(I)cc(I)c1O [NCGC00160556-02],-2.4
4,CCCCCCCCCCCC[N+](C)(C)Cc1ccccc1.[Cl-] [NCGC00164245-03],-2.2

# Next, values leading:
row,Curve Class,SMILES
1,-2.2,Cc1cc(Cl)ccc1-n1c(CCC(=O)O)ccc1-c1cccs1 [NCGC00100435-03]
2,-3,O=C(CS)Nc1ccccc1 [NCGC00160366-02]
3,-2.2,Cc1ccc(O)c2ncccc12 [NCGC00164506-02]

# Same assay, conditions: qHTS primary screen hits, Table S2; negative sign = inhibitory curve; several classes where COUNT > 1
row,SMILES,Curve Class
1,COc1ccc(Nc2cc(C)nc(-n3nc(C)cc3C)n2)cc1Cl.O=C(O)C(F)(F)F [NCGC00134126-02],-2.4
2,CN1CCN(CCC(=O)N2c3ccccc3Sc3ccc(C(F)(F)F)cc32)CC1.Cl [NCGC00160483-02],-2.4
3,COC1=C(OC)C(=O)C(CCCCCCCCCCO)=C(C)C1=O [NCGC00160514-02],-2.4
4,CSc1ccc(/C=C2/C(C)=C(CC(=O)O)c3cc(F)ccc32)cc1 [NCGC00161601-02],-2.4
5,O=C(O)c1ccc(S(=O)(=O)N[C@@H](Cc2ccc(O)cc2)C(=O)O)cc1 [NCGC00161808-01],-2.4
6,CS(=O)(=O)c1ccc(C(=O)C2C(=O)CCCC2=O)c([N+](=O)[O-])c1 [NCGC00163843-03],-2.4
7,C[C@]12CC[C@@H]3c4ccc(OC(=O)N(CCCl)CCCl)cc4CC[C@H]3[C@@H]1CC[C@@H]2O [NCGC00164581-02],-2.2

# Next, values leading:
row,Curve Class,SMILES
1,-2.4,Oc1ccc(Cl)c2cccnc12 [NCGC00095303-04]
2,-2.2,Cc1c(Cl)cccc1-n1c(CCC(=O)O)ccc1-c1cccs1 [NCGC00100415-03]
3,-2.4,Cc1ccc(S(=O)(=O)Nc2cc(S(=O)(=O)c3ccc(C)cc3)c(O)c3cccnc23)cc1 [NCGC00161699-01]
4,-2.4,O=S(=O)(Nc1cc(O)cc2cccnc12)c1ccc(Cl)s1 [NCGC00161701-01]
5,-2.4,COc1cc(NS(=O)(=O)c2ccc([N+](=O)[O-])cc2)c2ncccc2c1 [NCGC00161705-01]
6,-2.4,COc1cc(NS(=O)(=O)c2cccc([N+](=O)[O-])c2)c2ncccc2c1 [NCGC00161706-01]

# Same assay, conditions: qHTS primary screen hits, Table S2; read-out: IC50
row,SMILES,IC50
1,COc1ccc(Nc2cc(C)nc(-n3nc(C)cc3C)n2)cc1Cl.O=C(O)C(F)(F)F [NCGC00134126-02],50.1 µM
2,Oc1cc(Cl)ccc1Oc1ccc(Cl)cc1Cl [NCGC00159417-06],100 µM
3,CC(C)=CCOc1ccc(/C=C/C(=O)c2ccc(OCC=C(C)C)cc2OCC(=O)O)cc1 [NCGC00159481-03],100 µM
4,COCCCOc1ccnc(C[S+]([O-])c2nc3ccccc3[n-]2)c1C.[Na+] (centres unmarked) [NCGC00159518-05],42.2 µM
5,CN1CCN(CCC(=O)N2c3ccccc3Sc3ccc(C(F)(F)F)cc32)CC1.Cl [NCGC00160483-02],56.2 µM
6,COC1=C(OC)C(=O)C(CCCCCCCCCCO)=C(C)C1=O [NCGC00160514-02],50.1 µM
7,O=C(Nc1ccc(Oc2ccc(Cl)cc2)c(Cl)c1)c1cc(I)cc(I)c1O [NCGC00160556-02],89.1 µM
8,CSc1ccc(/C=C2/C(C)=C(CC(=O)O)c3cc(F)ccc32)cc1 [NCGC00161601-02],79.4 µM
9,O=C(O)c1ccc(S(=O)(=O)N[C@@H](Cc2ccc(O)cc2)C(=O)O)cc1 [NCGC00161808-01],44.7 µM
10,CS(=O)(=O)c1ccc(C(=O)C2C(=O)CCCC2=O)c([N+](=O)[O-])c1 [NCGC00163843-03],126 µM
11,CCCCCCCCCCCC[N+](C)(C)Cc1ccccc1.[Cl-] [NCGC00164245-03],50.1 µM
12,C[C@]12CC[C@@H]3c4ccc(OC(=O)N(CCCl)CCCl)cc4CC[C@H]3[C@@H]1CC[C@@H]2O [NCGC00164581-02],50.1 µM

# The remaining lines, values ahead:
row,IC50,SMILES
1,56.2 µM,Oc1ccc(Cl)c2cccnc12 [NCGC00095303-04]
2,50.1 µM,Cc1c(Cl)cccc1-n1c(CCC(=O)O)ccc1-c1cccs1 [NCGC00100415-03]
3,50.1 µM,Cc1cc(Cl)ccc1-n1c(CCC(=O)O)ccc1-c1cccs1 [NCGC00100435-03]
4,21.3 µM,NC[C@H](O)c1ccc(O)c(O)c1 [NCGC00159406-07]
5,89.1 µM,O=C(CS)Nc1ccccc1 [NCGC00160366-02]
6,50.1 µM,Cc1ccc(S(=O)(=O)Nc2cc(S(=O)(=O)c3ccc(C)cc3)c(O)c3cccnc23)cc1 [NCGC00161699-01]
7,50.1 µM,O=S(=O)(Nc1cc(O)cc2cccnc12)c1ccc(Cl)s1 [NCGC00161701-01]
8,56.2 µM,COc1cc(NS(=O)(=O)c2ccc([N+](=O)[O-])cc2)c2ncccc2c1 [NCGC00161705-01]
9,56.2 µM,COc1cc(NS(=O)(=O)c2cccc([N+](=O)[O-])c2)c2ncccc2c1 [NCGC00161706-01]
10,44.7 µM,Cc1ccc(O)c2ncccc12 [NCGC00164506-02]
